Where “and” joins values, the source holds several entries; their conditions need not be identical. Equal entries are not always repeated. Where two headings read alike, the source gives them in different places.

For series [1], the system named is cerebellar granule neurons. To be noted: for % neuronal survival Mean ± SD: 24 hours, percent of HK control. The procedure:
These compounds were analyzed for their neuroprotective activity in vitro. Granule neuron cultures were obtained from dissociated cerebella of 7-8 day old Wistar rats as known to one of ordinary skill in the art. Cells were plated in Basal Eagle's Medium with Earles salts (BME) supplemented with 10% fetal calf serum (FCS), 25 mM KCl, 2 mM glutamine (Invitrogen), and 100 μg/ml gentamycin on dishes (Nunc) coated with poly-L-lysine in 24-well dishes at a density 1×10^6 cells/well. Cytosine arabinofuranoside (10 μM) was added to the culture medium 18-22 hours after plating to prevent replication of non-neuronal cells that yields highly pure culture of granule neurons. The neuronal cultures were maintained for 7-8 days prior to treatments.
This experimental model of neuronal apoptosis has been used widely used to understand the molecular mechanisms underlying neurodegeneration and to identify biological and chemical agents with neuroprotective efficacy. For this, the cells were rinsed once and then maintained in low K^+ medium (serum-free BME medium, 5 mM KCl; referred to as LK), or in the case of control cultures, in high K^+ medium (serum-free BME medium, supplemented with 20 mM KCl; referred to as HK). Each compound was tested at three different concentrations of 1 μM, 5 μM, and 25 μM. The 25 μM concentration was included to evaluate neurotoxicity. For treatments, the chemical compounds (dissolved in dimethylsulfoxide) were added directly to LK medium at the time of the switch from HK at concentrations of 1 μM, 5 μM, or 25 μM. Viability was assessed 24 hours later. Each compound was tested in duplicate (at each of the concentrations) and the experiment repeated at least 3 times. Although all compounds were solubilized in dimethylsulfoxide (DMSO), the amount of DMSO in the cultures never exceeded 0.1% (v/v).
The viability status of neuronal cultures treated with HK, LK, or LK medium supplemented with various compounds was evaluated by phase contrast microscopy and quantified by staining cell nuclei with 4′,6′-diamidino2-phenylindole hydrochloride (DAPI). Briefly, the cells were fixed in 4% paraformaldehyde for 20 minutes at 4′C. After washing in phosphate buffered saline, DAPI (1 μg/ml in phosphate buffered saline) was added for 15 min at room-temperature and viewed under ultraviolet light (260 nm). Cells with condensed or fragmented nuclei were scored as dead. […] Statistical analysis was performed using an unpaired, two-tailed Student's t test, compared to mean neuronal survival of control cultures receiving LK treatment and the quantitative data are presented in Tables 1 and 2 for each compound.

Series [2] in a line: Z/E isomer stability in DMSO-d6 by NMR. To be noted: 6 hours from mixing. Type of series: physicochemical.
The mark [3] stands for this setting: LK medium, concentration not specified.

Regarding `O=C1Nc2ccc(Cl)cc2/C1=C\c1cc(Br)c(O)c(Br)c1` [Compound 7, (E)-3-(3′,5′-Dibromo-4-hydroxybenzylidene)-5-chlorondolin-2-one], the “neurotoxicity (in words)” value in series [1] was “not toxic”. Also, the “% neuronal survival Mean ± SD” value in series [1] (Table 1, 1 μM in LK medium) was 84.3 ± 1.04 %; in series [1] (Table 1, 5 μM in LK medium), 91.9% and 91.9 ± 5.31 %; in series [1] (Table 1, 25 μM in LK medium) it was 81.8 ± 14.94 %. Moreover, the “neuroprotective activity (in words)” value in series [1] (at 5 μM) is reported as “highly effective”. Besides, in series [2], the “percent of Z configuration after 6 hours” value is 70%.

As to `O=C1Nc2ccccc2/C1=C\c1cc(Br)c(O)c(Br)c1` [Compound 1, (E)-3-(3′,5′-Dibromo-4′-hydroxybenzylidene)indolin-2-one], the “neurotoxicity (in words)” value in series [1] is “not toxic”. Besides, in series [1] (setting [3]), the “neuroprotective activity (in words)” value was “moderately effective”. Besides, the “% neuronal survival Mean ± SD” value amounted to 69.7 ± 2.19 % in series [1] (Table 1, 1 μM in LK medium); 88.4 ± 11.74 % in series [1] (Table 1, 5 μM in LK medium); 84.6 ± 7.57 % in series [1] (Table 1, 25 μM in LK medium). In series [2], the “percent of Z configuration after 6 hours” value came out at 50%.

Turning to `CN(C)c1ccc(/C=C2/C(=O)Nc3ccc(Br)cc32)cc1` [Compound 20, (E)-5-Bromo-3-(4′-(dimethylamino)benzylidene)indolin-2-one], the “neuroprotective activity (in words)” value in series [1] (setting [3]) is recorded as “not effective”. Further, the “% neuronal survival Mean ± SD” value in series [1] (Table 1, 1 μM in LK medium) stood at 56.5 ± 2.28%; in series [1] (Table 1, 5 μM in LK medium), 54.9 ± 9.18%; in series [1] (Table 1, 25 μM in LK medium), 68.6 ± 9.38%.

As to “(Z)-5-Bromo (3-(1H-pyrrol-2′-yl)methylene)indolin-2-one [Compound 37]”, the “neuroprotective activity (in words)” value in series [1] (setting [3]) is given as “one of the most potent effective neuroprotective agents discovered”. Also, the “% neuronal survival Mean ± SD” value in series [1] (Table 2, 1 μM in LK medium) worked out at 75.5 ± 14.58%; in series [1] (Table 2, 5 μM in LK medium) it was 94.2 ± 0.15 %; in series [1] (Table 2, 25 μM in LK medium) it was 93.0 ± 1.38 %.

Consider `CC(=O)Oc1c(Br)cc(/C=C2/C(=O)Nc3ccc(Cl)cc32)cc1Br` [Compound 9, (E)-2,6-Dibromo-4-(5′-chloro-2′-oxoindolin-3-ylidene)methyl)phenyl acetate], for which, in series [1] (setting [3]), the “neuroprotective activity (in words)” value is recorded as “reduced activity”. Besides, the “% neuronal survival Mean ± SD” value in series [1] (Table 1, 1 μM in LK medium) is 73.0 ± 5.59 %; in series [1] (Table 1, 5 μM in LK medium), 84.6 ± 16.19 %; in series [1] (Table 1, 25 μM in LK medium), 75.2 ± 31.54%.

As for `CN(C)c1ccc(/C=C2\C(=O)Nc3ccc([N+](=O)[O-])cc32)cc1` [Compound 29, (Z)-3-(4′-(Dimethylamino)benzylidene)-5-nitroindolin-2-one], the “% neuronal survival Mean ± SD” value was 70.4 ± 9.37% in series [1] (Table 1, 1 μM in LK medium); 67.6 ± 10.31% in series [1] (Table 1, 5 μM in LK medium); 66.9 ± 9.86% in series [1] (Table 1, 25 μM in LK medium).

On to `COc1ccc(/C=C2/C(=O)Nc3ccc(Br)cc32)cc1` [Compound 19, (E)-5-Bromo-3-(4′-methoxybenzylidene)indolin-2-one], for which, in series [1] (setting [3]), the “neuroprotective activity (in words)” value is on record as “not effective”. The “% neuronal survival Mean ± SD” value in series [1] (Table 1, 1 μM in LK medium) is reported as 57.1 ± 4.51%; in series [1] (Table 1, 5 μM in LK medium) it was 59.5 ± 9.10%; in series [1] (Table 1, 25 μM in LK medium), 60.5 ± 9.56%.

On to `Cc1ccc(/C=C2/C(=O)Nc3ccc(Cl)cc32)cc1` [Compound 13, (E)-5-Chloro-3-(4′-methybenzylidene)indolin-2-one], for which the “% neuronal survival Mean ± SD” value in series [1] (Table 1, 1 μM in LK medium) was found to be 70.0 ± 17.50%; in series [1] (Table 1, 5 μM in LK medium), 70.6 ± 13.86%; in series [1] (Table 1, 25 μM in LK medium), 67.4 ± 17.40%.

For the compound `COc1cc(/C=C2\C(=O)Nc3ccc(Br)cc32)cc(OC)c1OC` [Compound 18, (Z)-5-Bromo-3-(3′, 4′,5′-trimethoxybenzylidene)indolin-2-one], in series [1] (setting [3]), the “neuroprotective activity (in words)” value is “not effective”. The “% neuronal survival Mean ± SD” value in series [1] (Table 1, 1 μM in LK medium) turned out to be 50.8 ± 7.67%; in series [1] (Table 1, 5 μM in LK medium), 59.9 ± 12.94%; in series [1] (Table 1, 25 μM in LK medium) it was 61.3 ± 1.20%.

As to `O=C1Nc2ccc([N+](=O)[O-])cc2/C1=C/c1cc(Br)cc(Br)c1` [Compound 22, (Z)-3-(3′,5′-Dibromobenzylidene)-5-nitroindolin-2-one], the “% neuronal survival Mean ± SD” value came to 78.1 ± 5.82 % in series [1] (Table 1, 1 μM in LK medium); 78.7 ± 15.86% in series [1] (Table 1, 5 μM in LK medium); 74.5 ± 9.12% in series [1] (Table 1, 25 μM in LK medium).

On to `O=C1Nc2ccc(Cl)cc2/C1=C\c1ccccc1` [Compound 12, (E)-3-Benzylidene-5-chloroindolin-2-one], for which the “neuroprotective activity (in words)” value in series [1] (setting [3]) is given as “not effective”. Also, the “% neuronal survival Mean ± SD” value came to 58.6 ± 3.27% in series [1] (Table 1, 1 μM in LK medium); 63.8 ± 8.63% in series [1] (Table 1, 5 μM in LK medium); 41.1 ± 21.41% in series [1] (Table 1, 25 μM in LK medium).

For the compound `O=C1Nc2ccc([N+](=O)[O-])cc2/C1=C/c1cc(Br)c(O)c(Br)c1` [Compound 21, (Z)-3-(3′,5′-Dibromo-4-hydroxybenzylidene)-5-nitroindolin-2-one], the “neuroprotective activity (in words)” value in series [1] (setting [3]) was “superior to Compound 1”. In addition, the “% neuronal survival Mean ± SD” value was 79.9 ± 12.81% in series [1] (Table 1, 1 μM in LK medium); 78.4 ± 31.66% in series [1] (Table 1, 5 μM in LK medium); 71.3 ± 19.80% in series [1] (Table 1, 25 μM in LK medium). Moreover, the “percent of Z configuration after 6 hours” value in series [2] was 70%.

In the case of `O=C1Nc2ccc([N+](=O)[O-])cc2/C1=C/c1ccccc1` [Compound 25, (Z)-3-Benzylidene-5-nitroindolin-2-one], the “% neuronal survival Mean ± SD” value in series [1] (Table 1, 1 μM in LK medium) is 80.1 ± 18.01%; in series [1] (Table 1, 5 μM in LK medium), 78.4 ± 17.54%; in series [1] (Table 1, 25 μM in LK medium), 54.3 ± 3.63%. Besides, the “neuroprotective activity (in words)” value in series [1] (at all three concentrations) was “moderately efficacious”.

`Cc1ccc(/C=C2\C(=O)Nc3ccc([N+](=O)[O-])cc32)cc1` [Compound 28, (Z)-3-(4′-Methylbenzylidene)-5-nitroindolin-2-one]: the “% neuronal survival Mean ± SD” value in series [1] (Table 1, 1 μM in LK medium) was found to be 54.6 ± 7.48%; in series [1] (Table 1, 5 μM in LK medium), 60.0 ± 1.87%; in series [1] (Table 1, 25 μM in LK medium), 54.3 ± 0.49%.

Take `O=C1Nc2ccc(F)cc2/C1=C/c1cccs1` [Compound 44, (Z)-5-Fluoro-3-(thien-2′-ylmethylene)indolin-2-one]: the “neuroprotective activity (in words)” value in series [1] (setting [3]) is recorded as “low protection”. The “% neuronal survival Mean ± SD” value is recorded as 53.6 ± 14.24% in series [1] (Table 2, 1 μM in LK medium); 60.1 ± 10.28% in series [1] (Table 2, 5 μM in LK medium); 68.7 ± 9.35% in series [1] (Table 2, 25 μM in LK medium).

With `O=C1Nc2ccc([N+](=O)[O-])cc2/C1=C/c1cccs1` [Compound 42, (Z)-5-Nitro-3-(thien-2′-ylmethylene)indolin-2-one], the “% neuronal survival Mean ± SD” value is recorded as 75.1 ± 9.11 % in series [1] (Table 2, 1 μM in LK medium); 67.6 ± 2.29% in series [1] (Table 2, 5 μM in LK medium); 66.9 ± 10.30% in series [1] (Table 2, 25 μM in LK medium).

Take `CN(C)c1ccc(/C=C2/C(=O)Nc3ccc(Cl)cc32)cc1` [Compound 15, (E)-5-Chloro-3-(4′-(dimethylamino)benzylidene)indolin-2-one]: the “% neuronal survival Mean ± SD” value in series [1] (Table 1, 1 μM in LK medium) is reported as 51.8 ± 15.66%; in series [1] (Table 1, 5 μM in LK medium), 55.8 ± 16.94%; in series [1] (Table 1, 25 μM in LK medium), 79.7 ± 4.69 %.

On to `O=C1Nc2ccc([N+](=O)[O-])cc2/C1=C/c1ccc[nH]1` [Compound 39], for which the “% neuronal survival Mean ± SD” value in series [1] (Table 2, 1 μM in LK medium) was 84.4 ± 3.41 %; in series [1] (Table 2, 5 μM in LK medium), 90.1 ± 6.55 %; in series [1] (Table 2, 25 μM in LK medium), 87.9 ± 1.40 %.

Turning to `O=C1Nc2ccccc2/C1=C/c1cccs1` [Compound 41, (Z)-3-(Thien-2′-ylmethylene)indolin-2-one], the “% neuronal survival Mean ± SD” value in series [1] (Table 2, 1 μM in LK medium) was 68.3 ± 13.16%; in series [1] (Table 2, 5 μM in LK medium), 77.1 ± 13.16%; in series [1] (Table 2, 25 μM in LK medium), 86.2 ± 4.03 %. In addition, in series [1] (at 25 μM / high doses), the “neuroprotective activity (in words)” value is given as “moderately active”.

On to `O=C1Nc2ccc(Br)cc2/C1=C/c1cc(Br)cc(Br)c1` [Compound 17, (Z)-5-Bromo-3-(3′,5′-dibromobenzylidene)indolin-2-one], for which the “% neuronal survival Mean ± SD” value in series [1] (Table 1, 1 μM in LK medium) stood at 54.7 ± 8.56%; in series [1] (Table 1, 5 μM in LK medium), 45.4 ± 3.05%; in series [1] (Table 1, 25 μM in LK medium) it was 46.9 ± 7.74%.

The record behind these values is patent publication US20100298376A1, “USE OF NOVEL NEUROPROTECTIVE 3-SUBSTITUTED INDOLONE COMPOSITIONS” (BOARD OF REGENTS, THE UNIVERSITY OF TEXAS SYSTEM, priority 2009, published 2010).
